Assay results taken from the supplement of paper PMC6045584.
± gives the standard deviation of the averaged measurements.

How the values were obtained:
2-METHOXYESTRADIOL = compound: COc1cc2c(cc1O)CC[C@@H]1[C@@H]2CC[C@]2(C)[C@@H](O)CC[C@@H]12 [2-METHOXYESTRADIOL]; experiment: surviving fraction relative to DMSO-only wells; higher = less growth inhibition; settings: exposure time: 5 days
In short: (§1)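 At 250–500 cells per well in 384-well plates, log-phase tumour cell lines were seeded and, 24 hours on, exposed continuously for five days to inhibitors at 0.5, 1, 5, 10, 50, 100, 500 and 1000 nM. Viability readout was CellTiter-Glo luminescence, reported as surviving fraction normalised to the median of DMSO-only wells.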

NUTLIN3 = compound: COc1ccc(C2=N[C@@H](c3ccc(Cl)cc3)[C@@H](c3ccc(Cl)cc3)N2C(=O)N2CCNC(=O)C2)c(OC(C)C)c1 [NUTLIN3]; experiment: as above; settings: exposure time: 5 days
In short: as §1

Row | Test System | surviving fraction (2-METHOXYESTRADIOL; 0.5 nM) | surviving fraction (2-METHOXYESTRADIOL; 1 nM) | surviving fraction (2-METHOXYESTRADIOL; 5 nM) | surviving fraction (2-METHOXYESTRADIOL; 10 nM) | surviving fraction (2-METHOXYESTRADIOL; 50 nM) | surviving fraction (2-METHOXYESTRADIOL; 100 nM) | surviving fraction (2-METHOXYESTRADIOL; 500 nM) | surviving fraction (2-METHOXYESTRADIOL; 1000 nM) | surviving fraction (NUTLIN3; 0.5 nM) | surviving fraction (NUTLIN3; 1 nM) | surviving fraction (NUTLIN3; 5 nM) | surviving fraction (NUTLIN3; 10 nM) | surviving fraction (NUTLIN3; 50 nM) | surviving fraction (NUTLIN3; 100 nM) | surviving fraction (NUTLIN3; 500 nM) | surviving fraction (NUTLIN3; 1000 nM)
1 | SUM149 BREAST | 0.984 ± 0.04 | 0.997 ± 0.052 | 1.07 ± 0.072 | 0.955 ± 0.025 | 1 ± 0.052 | 0.934 ± 0.065 | 0.442 ± 0.052 | 0.133 ± 0.022 | 1.03 ± 0.098 | 1.12 ± 0.052 | 1.18 ± 0.053 | 1.15 ± 0.085 | 1.08 ± 0.075 | 1.13 ± 0.11 | 1.04 ± 0.047 | 1.01 ± 0.092
2 | SUM149.B1*.S BREAST | 1.04 ± 0.011 | 1.02 ± 0.046 | 1.02 ± 0.025 | 1.02 ± 0.04 | 1.06 ± 0.025 | 1.08 ± 0.019 | 0.968 ± 0.015 | 0.628 ± 0.036 | 1.03 ± 0.045 | 1.07 ± 0.0015 | 1.05 ± 0.011 | 1.07 ± 0.022 | 1.13 ± 0.037 | 1.12 ± 0.017 | 1.14 ± 0.024 | 1.11 ± 0.04
3 | SUM159 BREAST | 1.02 ± 0.028 | 1.02 ± 0.028 | 1.01 ± 0.027 | 1.02 ± 0.022 | 1.02 ± 0.023 | 1.04 ± 0.021 | 0.9593 ± 0.0093 | 0.562 ± 0.074 | 1.07 ± 0.059 | 1.05 ± 0.04 | 0.982 ± 0.076 | 0.991 ± 0.041 | 1.03 ± 0.027 | 0.998 ± 0.08 | 0.946 ± 0.17 | 0.916 ± 0.25
4 | SYO1 SYNOVIAL | 0.933 ± 0.044 | 0.93 ± 0.038 | 0.933 ± 0.017 | 0.961 ± 0.046 | 0.946 ± 0.043 | 0.9446 ± 0.0033 | 0.441 ± 0.065 | 0.1008 ± 0.00069 | 1.01 ± 0.039 | 0.997 ± 0.038 | 0.993 ± 0.019 | 0.979 ± 0.036 | 0.977 ± 0.042 | 0.934 ± 0.048 | 0.588 ± 0.026 | 0.468 ± 0.012
5 | T47D BREAST | 1 ± 0.053 | 1.02 ± 0.017 | 0.9847 ± 0.0046 | 1.01 ± 0.038 | 1.06 ± 0.062 | 1.087 ± 0.0062 | 0.783 ± 0.033 | 0.543 ± 0.037 | 1.01 ± 0.029 | 0.993 ± 0.019 | 0.992 ± 0.043 | 1.01 ± 0.051 | 1.07 ± 0.029 | 1.08 ± 0.033 | 0.965 ± 0.075 | 0.937 ± 0.024
6 | U2OS BONE | 1.03 ± 0.016 | 1.013 ± 0.0046 | 1.02 ± 0.043 | 1.02 ± 0.017 | 1.06 ± 0.017 | 1.01 ± 0.021 | 0.681 ± 0.02 | 0.359 ± 0.033 | 1.02 ± 0.037 | 1.05 ± 0.037 | 1.04 ± 0.039 | 1.02 ± 0.049 | 1.04 ± 0.023 | 1.04 ± 0.028 | 0.974 ± 0.022 | 0.897 ± 0.036
7 | VCAP PROSTATE | 1.01 ± 0.05 | 0.983 ± 0.13 | 0.919 ± 0.054 | 1.1 ± 0.08 | 0.999 ± 0.075 | 1.06 ± 0.043 | 0.777 ± 0.069 | 0.231 ± 0.059 | 1.03 ± 0.066 | 1.13 ± 0.049 | 1.17 ± 0.088 | 1.25 ± 0.2 | 1.18 ± 0.24 | 1.18 ± 0.023 | 1.03 ± 0.14 | 1.11 ± 0.027
8 | VP229 BREAST | 1.03 ± 0.077 | 1.09 ± 0.15 | 0.954 ± 0.093 | 1.04 ± 0.094 | 1.03 ± 0.15 | 1.18 ± 0.17 | 0.981 ± 0.058 | 0.801 ± 0.11 | 1.16 ± 0.12 | 1.08 ± 0.21 | 1.21 ± 0.029 | 0.944 ± 0.17 | 0.972 ± 0.065 | 1.04 ± 0.082 | 1.13 ± 0.09 | 0.975 ± 0.037
9 | YAMATO SYNOVIAL | 1.06 ± 0.051 | 1.14 ± 0.052 | 1.08 ± 0.079 | 1.16 ± 0.028 | 1.18 ± 0.075 | 1.13 ± 0.11 | 0.521 ± 0.04 | 0.445 ± 0.031 | 1.42 ± 0.029 | 1.32 ± 0.13 | 1.43 ± 0.1 | 1.36 ± 0.1 | 1.5 ± 0.061 | 1.41 ± 0.15 | 1.4 ± 0.086 | 1.27 ± 0.13
10 | ZR751 BREAST | 1.06 ± 0.12 | 1.04 ± 0.097 | 1.02 ± 0.039 | 1.13 ± 0.058 | 1.06 ± 0.048 | 1.04 ± 0.098 | 1.07 ± 0.039 | 0.645 ± 0.11 | 1.26 ± 0.29 | 1.24 ± 0.11 | 1.02 ± 0.18 | 1.1 ± 0.011 | 1.11 ± 0.054 | 1.08 ± 0.23 | 0.786 ± 0.083 | 0.747 ± 0.024
